Measurements from publication PMC11246197 (Journal of medicinal chemistry, 2024).
Read-outs that look alike come from different tables or passages of the source.

Assays:
[1] = test system: BEAS-2B cells; format: cell-based, human; settings: BNPP (CES1 inhibitor) up to 20 μM co-incubated with 10 μM ProTide
[2] = Prodrug hydrolysis in human intestine S9 fractions; format: in vitro ADME; settings: 15 min incubation
[3] = Prodrug hydrolysis in human liver S9 fractions; format: in vitro ADME; settings: 15 min incubation
[4] = Plasma PK after oral administration in Ces1c−/− mice; settings: 54.4 μmole/kg
[5] = target: recombinant human CatA (rhCatA) (Homo sapiens, UniProt P10619); assay: Hydrolysis of ProTides by recombinant human CatA; format: biochemical; settings: 20 μM prodrug, 0.5 ng/μL rhCatA, 10 min, MES buffer pH 5.5, 37 °C, n = 3
[6] = Plasma PK after IV administration; settings: for AUC(0-inf) / AUC(0-t) / Cmax / Vd / half-life / concentration at 15 min: male, mouse, plasma, iv; for AUC(0-inf) / AUC(0-t) / Cmax / Vd / half-life: Ces1c−/− (JAX stock # 014096)
[7] = cited from earlier work
[8] = cited from earlier work; remark: listed apart in the source
[9] = target: T1, recombinant human CES1 (rhCES1) (Homo sapiens, UniProt P23141); assay: Hydrolysis of ProTides by recombinant human CES1; format: biochemical; settings: 20 μM prodrug, 40 ng/μL rhCES1, 20 min, Tris buffer pH 7.5, 37 °C, n = 3
T1 sequence (P23141 18-567): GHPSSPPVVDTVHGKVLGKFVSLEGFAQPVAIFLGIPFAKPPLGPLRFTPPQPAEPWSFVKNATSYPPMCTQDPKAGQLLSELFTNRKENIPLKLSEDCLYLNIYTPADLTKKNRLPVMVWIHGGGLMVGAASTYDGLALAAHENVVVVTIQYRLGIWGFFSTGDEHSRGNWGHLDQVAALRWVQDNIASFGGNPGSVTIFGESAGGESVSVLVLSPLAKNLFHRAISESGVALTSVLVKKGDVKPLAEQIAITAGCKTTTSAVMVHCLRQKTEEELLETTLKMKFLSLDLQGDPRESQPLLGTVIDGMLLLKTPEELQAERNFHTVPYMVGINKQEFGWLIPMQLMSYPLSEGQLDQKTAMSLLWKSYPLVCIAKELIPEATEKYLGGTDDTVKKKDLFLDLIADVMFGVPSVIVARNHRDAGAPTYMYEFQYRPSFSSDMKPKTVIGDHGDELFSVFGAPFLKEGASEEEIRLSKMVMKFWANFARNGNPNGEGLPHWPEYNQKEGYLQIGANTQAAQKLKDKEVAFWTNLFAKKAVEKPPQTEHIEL

[10] = Ex vivo human plasma stability; settings: 10 μM, 37 °C, 4 hours
[11] = male, Ces1c−/− (Ces1c knockout), in vivo, iv
[12] = test system: human bronchial epithelial cells; settings: within 48 hours after drug treatment; cited from earlier work
[13] = 24 h, 10 μM
[14] = wild-type mice; cited from earlier work
[15] = test system: lung virus titers; settings: 2 days post infection, cited from earlier work
[16] = test system: iPSC-AT2; settings: read-out: 50% cytotoxic concentration (CC50); cited from earlier work
[17] = cited from earlier work; remark: listed apart in the source
[18] = test system: VeroE6 cells; settings: read-out: 50% cytotoxic concentration (CC50); cited from earlier work
[19] = IV bolus, 54.4 μmole/kg, Ces1c−/− mice

Chain of recombinant human CatA (rhCatA) (P10619 327-480): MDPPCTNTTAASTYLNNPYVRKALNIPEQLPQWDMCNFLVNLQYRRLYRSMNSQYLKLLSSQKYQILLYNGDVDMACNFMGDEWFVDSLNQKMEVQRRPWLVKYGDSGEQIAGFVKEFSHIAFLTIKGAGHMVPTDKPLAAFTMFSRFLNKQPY
Chain of recombinant human CatA (rhCatA) (P10619 29-326): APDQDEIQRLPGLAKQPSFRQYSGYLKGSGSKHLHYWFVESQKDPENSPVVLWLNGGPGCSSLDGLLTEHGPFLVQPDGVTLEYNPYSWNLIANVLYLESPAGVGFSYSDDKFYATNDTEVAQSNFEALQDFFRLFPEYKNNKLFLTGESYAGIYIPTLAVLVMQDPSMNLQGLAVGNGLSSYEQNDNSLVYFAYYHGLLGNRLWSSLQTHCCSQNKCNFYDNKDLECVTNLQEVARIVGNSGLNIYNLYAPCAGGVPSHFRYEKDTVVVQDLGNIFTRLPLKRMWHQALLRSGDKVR

Row | Structure (SMILES) | Prodrug form in plasma after oral administration [4] | Activity of rhCatA for prodrug hydrolysis [5] | CL/F of the administered compound [6, 19] | Stability in human plasma [8] | Activity of rhCES1 for prodrug hydrolysis [9] | Hydrolyzed in human plasma [10] | AUC(0-inf) ([6]; 54.4 μmole/kg) | AUC(0-t) ([6]; 54.4 μmole/kg) | Cmax ([6]; 54.4 μmole/kg) | Vd ([6]; 54.4 μmole/kg) | half-life ([6]; 54.4 μmole/kg) | concentration at 15 min ([6]; 54.4 μmole/kg) | other results
1 | O=[N+]([O-])c1ccc(OP(=O)(O)Oc2ccc([N+](=O)[O-])cc2)cc1 [BNPP, Bis-(p-nitrophenyl) phosphate] | – | – | – | – | – | – | – | – | – | – | – | – | Effect of inhibitor on the formation of RDV-TP [1]: did not significantly alter
2 | CC(C)C(=O)OC[C@H]1O[C@@](C#N)(c2ccc3c(N)ncnn23)[C@H](OC(=O)C(C)C)[C@@H]1OC(=O)C(C)C [GS-621763] | barely detected | – | – | – | – | – | – | – | – | – | – | – | Prodrug remaining in human intestine homogenate [2]: could barely be detected; Prodrug remaining in human liver homogenate [3]: could barely be detected
3 | CC(C)OC(=O)[C@H](C)N[P@](=O)(OC[C@H]1O[C@@](C#N)(c2ccc3c(N)ncnn23)[C@H](O)[C@@H]1O)Oc1ccccc1 [IsoRDV] | barely detected | 236.7 ± 172.8 pmol/min/μg protein | 0.28 ± 0.03 L⋅h^−1 | 1561 min | 7.7 ± 1.4 pmol/min/μg protein | ~15% | – | – | – | – | – | – | AUC0-∞ of the administered compound in plasma [6, 19]: 4,950.3 ± 628.2 h⋅nM; Vd (apparent distribution volume) [6, 19]: 0.42 ± 0.17 L; t1/2 of the administered compound in plasma [6, 19]: 1.04 ± 0.33 h; AUC0-t of the administered compound in plasma ([6]; IV bolus, 54.4 μmole/kg, Ces1c−/− mice, AUC0-t(8h)): 4,941.6 ± 626.4 h⋅nM; logD [7]: 1.1; Oral bioavailability (estimated) [4]: less than 2%
4 | N#C[C@@]1(c2ccc3c(N)ncnn23)O[C@H](CO)[C@@H](O)[C@H]1O [Nuc] | – | – | 0.052 ± 0.002 L⋅h^−1 | – | – | – | 26.3 µM·h | 25.1 µM·h | 18.1 µM | 0.47 ± 0.29 L | 6.34 ± 4.01 h | 18.1 µM | RDV-TP concentrations in the mouse lung relative to estimated EC50/EC90 [11]: constantly below EC50; RDV-TP levels, fold lower than RDV [12]: at least 40 fold; Reduction after incubation with human plasma [13]: 5%
5 | CCC(CC)COC(=O)[C@H](C)N[P@](=O)(OC[C@H]1O[C@@](C#N)(c2ccc3c(N)ncnn23)[C@H](O)[C@@H]1O)Oc1ccccc1 [RDV, remdesivir] | barely detected | 1,786.5 ± 179.2 pmol/min/μg protein | 1.06 ± 0.44 L⋅h^−1 | 69 min | 15.5 ± 1.8 pmol/min/μg protein | approximately 70% | 1.58 µM·h | 1.57 µM·h | 1.37 µM | 1.91 ± 0.94 L | 1.25 ± 0.39 h | 1.37 µM | Plasma half-life in mice [14]: < 5 min; Effect on lung virus titers ([15]; 25 mg/kg twice daily): significantly reduced the lung virus titers; Effect on lung virus titers ([15]; 50 mg/kg single dose daily): could not; Presence in plasma 4 hours after IV administration [6, 19]: barely detectable; Portion of plasma RDV that disappeared ([6]; within 30 minutes after IV administration): about 90%; CC50 [16]: 32.7 µM; Half-life in human plasma [8]: 1.15 h; Half-life in human plasma ex vivo [8]: 1.15 h; Plasma half-life in Ces1c−/− mice [17]: ~ 25 min; CC50 [18]: 101 µM
